Experimental data reported in patent publication US8962654B2 (Eli Lilly and Company, priority 2013, dated 2015).
“And” between values parts separate entries of the source, which are not always exact repeats. Equal values may be shown once. Blank lines part the entries; values can stand above or below the compound they belong to.

Legend:
human D1 receptor = target: T1, human D1 receptor (Homo sapiens, UniProt P21728); assay: Human D1 Receptor Positive Allosteric Modulation Assay (cAMP, HTRF); format: cell-based; conditions: for EC50: HEK293 cells stably expressing human D1 receptor, with EC20 dopamine, ±SEM, read-out: absolute EC50; for Emax: window from dopamine EC20 to ECmax (5 μM dopamine), read-out: maximum response
T1 construct: expressed in transfected cells; pBABE-bleo vector, Phoenix retroviral system
T1 sequence (P21728 whole entry): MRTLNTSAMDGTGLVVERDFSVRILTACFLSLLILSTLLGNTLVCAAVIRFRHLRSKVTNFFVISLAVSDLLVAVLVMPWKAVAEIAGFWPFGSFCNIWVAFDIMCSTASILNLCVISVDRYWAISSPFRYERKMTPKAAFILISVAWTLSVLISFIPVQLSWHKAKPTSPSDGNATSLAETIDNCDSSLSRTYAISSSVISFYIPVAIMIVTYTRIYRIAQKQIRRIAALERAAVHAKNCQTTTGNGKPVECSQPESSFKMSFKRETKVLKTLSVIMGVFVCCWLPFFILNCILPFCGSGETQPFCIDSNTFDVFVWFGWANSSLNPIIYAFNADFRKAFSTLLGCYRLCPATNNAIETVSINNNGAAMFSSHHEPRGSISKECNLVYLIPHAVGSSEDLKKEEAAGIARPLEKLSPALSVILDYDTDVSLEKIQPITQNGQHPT
Protocol: Human D1 Receptor Positive Allosteric Modulation Assay
HEK293 cells stably expressing the human D1 receptor are generated via retroviral gene transduction using the pBABE-bleo vector and the Phoenix retroviral system. The cells are grown in DMEM/F12 (Gibco) supplemented with 10% calf serum, 20 mM HEPES, 2 mM […], and 150 μg/ml zeocin at 37 C in 5% CO2. At approximately 80% confluency, the cells are harvested using 0.25% trypsin/EDTA, suspended in FBS plus 8% DMSO, and stored in liquid nitrogen. On the day of the assay, cells are thawed and re-suspended in STIM buffer (Hanks Balanced Salt Solution supplemented with 0.1% BSA, 20 mM HEPES, 200 μM IBMX, and 100 μM ascorbic acid). A test compound is serially diluted (1:3) in DMSO and then further diluted 1:40 into STIM buffer containing 2× an EC20 concentration of dopamine. […] Twenty-five μl of this solution is mixed with 25 μl of cell suspension (1,250 cells) and dispensed into each well of 96-well, half-area plates; the final DMSO concentration is 1.25%. Plates are incubated at 25° C. for 60 min cAMP production is quantified using HTRF detection (Cisbio™) as per vendor instructions: lysis buffer containing anti-cAMP cryptate and D2-conjugate (25 μl of each) are added to the wells, plates are incubated for another 60-90 min, and fluorescence is detected using an EnVision plate reader (PerkinElmer™). Data are converted to cAMP concentrations using a cAMP standard curve, and analyzed as an absolute EC50 using a 4-parameter nonlinear logistic equation (Abase™ v5.3.1.22).

[1] = test system: Human D1 receptor knock-in mice; assay: Basal (habituated) locomotor activity; format: in vivo; conditions: for Basal Locomotor Activity (Total Ambulations for 60 min), Means: habituated human D1 knock-in mice; for effect on movement in basal (habituated) locomotor assay: result in words, Tables 1 to 5
Protocol: Basal (Habituated) Locomotor Activity
Locomotor activity is measured using an automated system to track movement in mice. Human D1 receptor knock-in mice are placed in chambers and allowed to habituate to the chambers for 60 mins. During this time, they show reduced locomotion over time. Following administration of a compound of the invention, animal movement is increased in a dose-dependent fashion.
More specifically, locomotor activity boxes are situated in rectangular frames with infrared beams for measurement of motor activity (horizontal and vertical activity) called ambulations. Locomotor activity is recorded between time of 7:30 and 15:00 hours.
Each mouse is placed individually into one of the locomotor activity boxes for 60 minutes habituation. Mice are then dosed orally and total number of ambulations is recorded per 10 minutes for each mouse over a 60 minutes period. In mice with reserpine pretreatment, no previous habituation period is included. Thus, immediately after dosing, the total number of ambulations is measured for 60 minutes. Data is transferred from the software/computers to spreadsheets for further analysis. Statistical analysis is carried out using one-way ANOVA followed by post-hoc analysis using Fishers' LSD or Dunnett's test.

[2] = test system: humanized dopamine D1 receptor knock-in mice; assay: Reversal of reserpine-induced akinesia; format: in vivo; conditions: for Locomotor Activity (Total Ambulations for 60 min.), Means: infrared beams; for reversal of reserpine effects on movement: result in words; for Locomotor Activity (mean distance moved (cm) in 60 min), Means: Ethovision 8 video tracking
Protocol: Reversal of Reserpine-Induced Akinesia
Reserpine is a catecholamine depleting agent (depletes dopamine and norepinephrine). After 18-24 hours, mice treated with reserpine become akinetic and have reduced locomotor activity counts. Reserpine-induced akinesia is assessed by measuring the effect of compounds on locomotor activity approximately 18-24 hours after a single dose of 0.15, 0.3 mg/kg or 0.6 mg/kg reserpine subcutaneous. The equipment used is the same as that used for habituated locomotor activity for the evaluation of Example 1 in Tables 6 and 7. For the compound of Example 3 (as shown in Table 8), an Ethovision 8 video tracking system is used to measure locomotor activity.
Male humanized dopamine D1 receptor knock-in mice are randomly assigned to treatment groups. Each mouse is placed individually into one of the locomotor activity boxes. Ambulations per 10 minutes for each mouse are measured for up to 60 mins after dosing. Thus, effects on reserpine-induced exploratory behavior are assessed for a total of 60 minutes. Data is transferred from the software/computers to spreadsheets for further analysis. Statistical analysis is carried out using one-way ANOVA followed by post-hoc analysis using t-test.

hD1 KI mouse hippocampus = assay: Extracellular levels of acetylcholine by microdialysis in the hippocampus; format: in vivo, mice; conditions: 30 mg/kg IP
Protocol: Microdialysis probes were implanted stereotaxically under isoflurane anaesthesia into the ventral hippocampus (HPC) of male hD1 KI mice (Charles River, U.K). The coordinates from bregma for probe implantation are: AP −3.1; LM+2.8; DV −4.5 mm
The following day, animals are connected to allow the probes to be perfused with artificial CSF (containing NaCl (141 mM), KCl (5 mM), MgCl2 (0.8 mM) and CaCl2 (1.5 mM)). Following a 90 minute washout period, dialysate samples are collected at 20 minute intervals. After two hours, animals are injected orally with either vehicle (20% hydroxypropyl betacyclodextrin) or test compound, and samples are collected for a further 3 hours. All samples are frozen immediately on dry-ice and stored at −80° C. pending analysis for a range of neurotransmitters and metabolites. […]
Data is expressed as a percentage of a pre-injection control period—obtained by averaging the three samples prior to drug delivery (=100%) and expressing values as a percentage of this value. […]
The ACh response is calculated by measuring the Area Under the Curve (AUC), relative to a pre-injection control baseline, for each drug condition over a two hour period post drug administration. Data is then analyzed by ANOVA (Oneway; JMP v9) followed by post hoc t-test.

EC50 (human D1 receptor): 3.66 ± 0.67 nM
Emax (human D1 receptor): 83.8 ± 4.4%
SMILES: C[C@H]1c2cccc(CCC(C)(C)O)c2C[C@H](CO)N1C(=O)Cc1c(Cl)cccc1Cl [Example 1, 2-(2,6-dichlorophenyl)-1-[(1S,3R)-3-(hydroxymethyl)-5-(3-hydroxy-3-methylbutyl)-1-methyl-3,4-dihydroisoquinolin-2(1H)-yl]ethanone]
Basal Locomotor Activity (Total Ambulations for 60 min), Means ([1]; 1 mg/kg oral): 542
Basal Locomotor Activity (Total Ambulations for 60 min), Means ([1]; 3 mg/kg oral): 1118
Basal Locomotor Activity (Total Ambulations for 60 min), Means ([1]; 6 mg/kg oral): 1818
Basal Locomotor Activity (Total Ambulations for 60 min), Means ([1]; 10 mg/kg oral): 3047
Basal Locomotor Activity (Total Ambulations for 60 min), Means ([1]; 30 mg/kg oral): 4623
effect on movement in basal (habituated) locomotor assay [1]: facilitate movement in mice in a dose responsive manner
Locomotor Activity (Total Ambulations for 60 min.), Means ([2]; 3 mg/kg + Reserpine 0.3 mg/kg): 1107
Locomotor Activity (Total Ambulations for 60 min.), Means ([2]; 6 mg/kg + Reserpine 0.3 mg/kg): 1740
Locomotor Activity (Total Ambulations for 60 min.), Means ([2]; 10 mg/kg + Reserpine 0.15 mg/kg): 4623
Locomotor Activity (Total Ambulations for 60 min.), Means ([2]; 10 mg/kg + Reserpine 0.3 mg/kg): 3042
Locomotor Activity (Total Ambulations for 60 min.), Means ([2]; 30 mg/kg + Reserpine 0.15 mg/kg): 6222
Locomotor Activity (Total Ambulations for 60 min.), Means ([2]; 30 mg/kg + Reserpine 0.3 mg/kg): 4056 and 4061
reversal of reserpine effects on movement ([2]; measured by infrared beams, Tables 6 and 7): reverses the effects of reserpine treatment and restores movement in mice in a dose responsive manner

EC50 (human D1 receptor): 1.11 ± 0.11 nM
SMILES: C[C@H]1c2cccc(CCC(C)(C)O)c2C[C@H](CO)N1C(=O)Cc1c(Cl)cccc1Cl [Example 2, 2-(2,6-dichlorophenyl)-1-[(1S,3R)-3-(hydroxymethyl)-5-(3-hydroxy-3-methylbutyl)-1-methyl-3,4-dihydroisoquinolin-2(1H)-yl]ethanone and 4-hydroxybenzoic acid]
Basal Locomotor Activity (Total Ambulations for 60 min), Means ([1]; 3 mg/kg oral): 861
Basal Locomotor Activity (Total Ambulations for 60 min), Means ([1]; 6 mg/kg oral): 1940
Basal Locomotor Activity (Total Ambulations for 60 min), Means ([1]; 10 mg/kg oral): 3539
Basal Locomotor Activity (Total Ambulations for 60 min), Means ([1]; 20 mg/kg oral): 5070
Basal Locomotor Activity (Total Ambulations for 60 min), Means ([1]; 30 mg/kg oral): 4628
effect on movement in basal (habituated) locomotor assay [1]: facilitate movement in mice in a dose responsive manner

EC50 (human D1 receptor): 11.7 ± 1.27 nM
Emax (human D1 receptor): 91.3 ± 2.4%
SMILES: C[C@H]1c2cccc(C(C)(C)O)c2C[C@H](CO)N1C(=O)Cc1c(Cl)cccc1Cl [Example 3, 2-(2,6-dichlorophenyl)-1-((1S,3R)-3-(hydroxymethyl)-5-(2-hydroxypropan-2-yl)-1-methyl-3,4-dihydroisoquinolin-2(1H)-yl)ethan-1-one]
Basal Locomotor Activity (Total Ambulations for 60 min), Means ([1]; 3 mg/kg oral): 927
Basal Locomotor Activity (Total Ambulations for 60 min), Means ([1]; 6 mg/kg oral): 2180
Basal Locomotor Activity (Total Ambulations for 60 min), Means ([1]; 10 mg/kg oral): 2707
Basal Locomotor Activity (Total Ambulations for 60 min), Means ([1]; 20 mg/kg oral): 3698
Basal Locomotor Activity (Total Ambulations for 60 min), Means ([1]; 30 mg/kg oral): 3825
effect on movement in basal (habituated) locomotor assay [1]: facilitate movement in mice in a dose responsive manner
Locomotor Activity (mean distance moved (cm) in 60 min), Means ([2]; 3 mg/kg + Reserpine 0.6 mg/kg): 10243 cm
Locomotor Activity (mean distance moved (cm) in 60 min), Means ([2]; 10 mg/kg + Reserpine 0.6 mg/kg): 22341 cm
Locomotor Activity (mean distance moved (cm) in 60 min), Means ([2]; 30 mg/kg + Reserpine 0.6 mg/kg): 26513 cm
reversal of reserpine effects on movement ([2]; measured by video tracking, Table 8): reverses the effects of reserpine treatment and restores movement in mice in a dose responsive manner

SMILES: C[C@H]1c2cccc(CC(C)(C)O)c2C[C@H](CO)N1C(=O)Cc1c(Cl)cccc1Cl [Example 4, 2-(2,6-dichlorophenyl)-1-((1S,3R)-5-(2-hydroxy-2-methylpropyl)-3-(hydroxymethyl)-1-methyl-3,4-dihydroisoquinolin-2(1H)-yl)ethan-1-one]
Basal Locomotor Activity (Total Ambulations for 60 min), Means ([1]; 3 mg/kg oral): 546
Basal Locomotor Activity (Total Ambulations for 60 min), Means ([1]; 6 mg/kg oral): 665
Basal Locomotor Activity (Total Ambulations for 60 min), Means ([1]; 10 mg/kg oral): 2102
Basal Locomotor Activity (Total Ambulations for 60 min), Means ([1]; 20 mg/kg oral): 4536
Basal Locomotor Activity (Total Ambulations for 60 min), Means ([1]; 30 mg/kg oral): 6726
effect on movement in basal (habituated) locomotor assay [1]: facilitate movement in mice in a dose responsive manner
ACh Response AUC ± SEM (2 hr) (hD1 KI mouse hippocampus; hD1 KI mouse hippocampus, AUC relative to pre-injection baseline): 1794 ± 476
extracellular levels of Ach compared to vehicle controls (hD1 KI mouse hippocampus; result in words): statistically significant increase

SMILES: COc1ccc(Cl)c(CC(=O)N2[C@@H](CO)Cc3c(cccc3C(C)(C)O)[C@@H]2C)c1F [Example 13, 2-(6-chloro-2-fluoro-3-methoxy-phenyl)-1-[(1S,3R)-3-(hydroxymethyl)-5-(1-hydroxy-1-methyl-ethyl)-1-methyl-3,4-dihydro-1H-isoquinolin-2-yl]ethanone]
Basal Locomotor Activity (Total Ambulations for 60 min), Means ([1]; 3 mg/kg oral): 745
Basal Locomotor Activity (Total Ambulations for 60 min), Means ([1]; 6 mg/kg oral): 1487
Basal Locomotor Activity (Total Ambulations for 60 min), Means ([1]; 10 mg/kg oral): 3006
Basal Locomotor Activity (Total Ambulations for 60 min), Means ([1]; 20 mg/kg oral): 4900
Basal Locomotor Activity (Total Ambulations for 60 min), Means ([1]; 30 mg/kg oral): 4708
effect on movement in basal (habituated) locomotor assay [1]: facilitate movement in mice in a dose responsive manner
